# Experiments:
# T. b. brucei - STIB795 = assay: In vivo efficacy, acute T. b. brucei STIB795 infection model in mice; design: species or system mouse (NMRI); details: for average (survival days) / cured/infected: 4 × 50 mg/kg i.p., NMRI mice; for average (survival days): control 6; for activity in the model (lengthening the survival days) / mice cured: STIB795 model, footnote of Table 4; for protection from lethal effects of infection: controls died on average by Day 6
# Method: Compounds are tested for efficacy in the acute model for T. b. brucei infection (Bitonti A J, Byers T L, Bush T L, Casara P J, Bacchi C J, Clarkson A B, Jr., McCann P P, Sjoerdsma A, 1990. Cure of Trypanosoma brucei brucei and Trypanosoma brucei rhodesiense infections in mice with an irreversible inhibitor of S-adenosylmethionine decarboxylase. Antimicrob Agents Chemother 34: 1485-1490). Briefly, mice are infected with 1×10^4 strain STIB 795 trypanosomes on Day 0, then treated once/day (50 mg/kg i.p) with test compound for 4 days starting on Day 3. Animals are assessed by microscopic examination of blood smears twice/week through Day 60. Untreated animals generally die by Days 7-9.
SMILES,survival of treated animals (T. b. brucei - STIB795),average (survival days) (T. b. brucei - STIB795) [days],cured/infected (T. b. brucei - STIB795; 20 Days) [Days 0/4],cured/infected (T. b. brucei - STIB795; >30 Days),parasites on Day 20 (T. b. brucei - STIB795; Day 20),parasites on Day 30 (T. b. brucei - STIB795; Day 30),activity in the model (lengthening the survival days) (T. b. brucei - STIB795),mice cured (T. b. brucei - STIB795; listed as Compound No. 4),protection from lethal effects of infection (T. b. brucei - STIB795),logD (physchem),cured/infected (T. b. brucei - STIB795; 26 Days) [Days 2/4],mice cured (T. b. brucei - STIB795)
Cc1nc2c(N)ncnc2n1[C@@H]1O[C@H](CN(C)C/C=C\CN)[C@@H](O)[C@H]1O (stereo in doubt) [Compound 4],all survived through Day 30,>30,20,1/4,appeared free of parasites,parasites were again evident,active in the model in terms of lengthening the survival days,¼,protected mice from lethal effects of infection,–,–,–
"CN(C/C=C\CN)CC1OC(n2cnc3c(N)ncnc32)C(O)C1O (centres unmarked) [MDL-73811, reference compound]",all survived through Day 30,>30,–,1/4,–,–,active in the model in terms of lengthening the survival days,–,protected mice from lethal effects of infection,-1.8,26,¼
